Reference: PMC12764431 (Nature immunology, 2025)

Assays:
[1] = test system: dendritic cells (DCs) pulsed with InsB9–23; assay: MHC-II; assay type: cell-based, NOD mice; details: InsB9–23-pulsed DCs, TNFα or TNFα plus NAC; three independent peptidomes
[2] = test system: MIN6 cells and B6 mouse islets; assay: Granule-based antigen presentation; assay type: cell-based; details: MIN6 cells stimulated with TNFα; for S5 T cell responses to crinosome fractions from TNFα-treated MIN6 cells: with or without glutathione or TUDCA, n = 6
[3] = test system: InsB9–23(C19S)-specific T cell hybridomas; assay: Responses of InsB9–23; assay type: cell-based, NOD mice; details: C3.g7 cells pulsed with peptides, 0.3 μM; n = 6 hybridomas
MHC-II = details: cited from earlier work
soluble I-A^g7 molecules = assay: Biochemical competitive binding assay; set-up: species or system mouse; details: soluble I-A^g7, Extended Data Fig. 3c,d, n = 2
[4] = test system: 9B9 CD4^+ T cell hybridoma; assay: Response of the 9B9 CD4+ T cell hybridoma to synthetic peptides; assay type: cell-based, NOD mice; details: serially diluted peptide, IL-2 production
[5] = test system: S5 CD4^+ T cell hybridoma; assay: Response of the S5 CD4+ T cell hybridoma to synthetic peptides; assay type: cell-based, NOD mice; details: serially diluted peptide, IL-2 production
[6] = test system: islet and pancreatic lymph node cells; assay: IFNγ ELISPOT, antigen recall of pooled islet and pancreatic lymph node cells; assay type: cell-based; details: cells pooled from islets and pancreatic lymph nodes of 8-week-old female NOD mice, peptide 1 μM; n = 4
[7] = test system: MIN6 cells and B6 mouse islets; assay: β cell death and total granule protein after tunicamycin; assay type: cell-based; details: tunicamycin 2 h, followed by extensive washing

CC(=O)N[C@@H](CS)C(=O)O [NAC, N-acetylcysteine]
InsB9–23(C19S) peptide in the DC I-A^g7 peptidome [1]: reduced

C[C@H](CCC(=O)NCCS(=O)(=O)O)[C@H]1CC[C@H]2[C@@H]3[C@@H](O)C[C@@H]4C[C@H](O)CC[C@]4(C)[C@H]3CC[C@]12C [TUDCA, tauroursodeoxycholic acid]
S5 T cell responses to crinosome fractions from TNFα-treated MIN6 cells [2]: inhibited

N[C@@H](CCC(=O)N[C@@H](CS)C(=O)NCC(=O)O)C(=O)O [glutathione]
S5 T cell responses to crinosome fractions from TNFα-treated MIN6 cells [2]: inhibited

EALYLVSGE [Nested InsB13-21(C19S)]
Recognition of register peptides by InsB9–23(C19S)-specific T cell hybridomas [3]: only a few recognizing

GDLQTLALEVARE [CP1d]
MHC-II binding relative to the native C-peptide (MHC-II): ~ 45 fold

InsB12–20(C19A): surrogate InsB12–20 peptide with C19A
Binding to I-A^g7 compared to native counterparts (soluble I-A^g7 molecules): similarly reduced binding

SHLVEALALVCGERG [InsB9–23(Y16A)]
Response of the 9B9 T cell hybridoma to peptide [4]: did not respond
Response of the S5 T cell hybridoma to peptide [5]: failed to respond at any peptide concentration

SHLVEALYLVCGERG [InsB9–23]
IFNγ production by ELISPOT during antigen recall [6]: induced IFNγ production

SHLVEALYLVSGERG [InsB9–23(C19S)]
Response of the 9B9 T cell hybridoma to peptide [4]: minimal reactivity
Response of the S5 T cell hybridoma to peptide [5]: responded robustly
IFNγ production by ELISPOT during antigen recall [6]: triggered even higher responses

TNFα
Native InsB9–23 levels (9B9 T cell responses), TNFα-treated MIN6 cells [2]: did not affect
S5 T cell responses to crinosome fractions from TNFα-treated MIN6 cells [2]: significant increase
InsB9–23(C19S) peptide in the DC I-A^g7 peptidome [1]: appeared

tunicamycin
β cell death [7]: did not cause β cell death
